According to patent US20230382949A1 (HEPTARES THERAPEUTICS LIMITED, priority 2020, published 2023):
Read-outs that look alike come from different tables or passages of the source. Starred links: 1 amine or outer side, 2 acyl side, 3 side chain; linkers in the order of their positions; H or OH if unused. Non-standard residues stand in square brackets, D forms with d. Residues, ends and D or L forms follow the SMILES beside them. *: point of attachment. Ala(piperidin-4-yl) = O=C([C@H](CC1CCN([*:3])CC1)N[*:1])[*:2]; Malonyl(2,2-Me2,histaminyl) = CC(C)(C(=O)NCCc1cnc[nH]1)C(=O)*; dBip = N[C@H](Cc1ccc(-c2ccccc2)cc1)C(=O)O; Oic = O=C(O)[C@@H]1C[C@@H]2CCCC[C@@H]2N1; Phe(4-Br) = N[C@@H](Cc1ccc(Br)cc1)C(=O)O; dPhe(4-Br) = N[C@H](Cc1ccc(Br)cc1)C(=O)O; His(τ-Me) = Cn1cnc(C[C@H](N)C(=O)O)c1; NMeH = CN[C@@H](Cc1c[nH]cn1)C(=O)O; X1 = CC(C)(C(=O)NCCc1ccccc1)C(=O)*; X3 = CC(C)(C(=O)NCCc1ccccn1)C(=O)*; hArg = N=C(N)NCCCC[C@H](N)C(=O)O; dCha = N[C@H](CC1CCCCC1)C(=O)O; NMeL = CN[C@@H](CC(C)C)C(=O)O; Aib = CC(C)(N)C(=O)O; Bn = c1ccc(C*)cc1; Sar = CNCC(=O)O

How the values were obtained:
human Apelin receptor [1] = biological target: T1, human Apelin receptor (Homo sapiens, UniProt P35414); assay: β-arrestin accumulation assay, functional agonism of human Apelin receptors; assay type: cell-based
T1 construct: host or cells: CHO-K1 cells
Summary of the method: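 After 16 h at 37° C., cells were exposed to increasing agonist concentrations in serum-free medium for 90 min at 37° C. Detection reagent added for 60 min in the dark; receptor activation read by fluorescence and EC50 derived from concentration-response curves.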
T1 sequence (P32121 whole entry partner, one chain of several): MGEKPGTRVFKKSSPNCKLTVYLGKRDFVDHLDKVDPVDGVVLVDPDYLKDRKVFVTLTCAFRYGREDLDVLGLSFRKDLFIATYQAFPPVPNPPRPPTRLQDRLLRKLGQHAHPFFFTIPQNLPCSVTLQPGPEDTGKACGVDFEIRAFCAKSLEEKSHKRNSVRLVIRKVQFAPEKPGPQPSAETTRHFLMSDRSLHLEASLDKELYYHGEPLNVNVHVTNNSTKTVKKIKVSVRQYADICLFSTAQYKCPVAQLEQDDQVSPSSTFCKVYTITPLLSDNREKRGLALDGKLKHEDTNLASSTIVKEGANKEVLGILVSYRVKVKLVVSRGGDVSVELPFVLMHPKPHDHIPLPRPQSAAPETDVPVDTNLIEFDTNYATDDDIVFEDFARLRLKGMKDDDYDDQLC

human Apelin receptor [2] = biological target: T2, human Apelin receptor (Homo sapiens, UniProt P35414); assay: cAMP accumulation assay (HTRF), functional agonism of human Apelin receptors; assay type: cell-based; settings: for Emax: CHO
T2 sequence (P35414 1-380): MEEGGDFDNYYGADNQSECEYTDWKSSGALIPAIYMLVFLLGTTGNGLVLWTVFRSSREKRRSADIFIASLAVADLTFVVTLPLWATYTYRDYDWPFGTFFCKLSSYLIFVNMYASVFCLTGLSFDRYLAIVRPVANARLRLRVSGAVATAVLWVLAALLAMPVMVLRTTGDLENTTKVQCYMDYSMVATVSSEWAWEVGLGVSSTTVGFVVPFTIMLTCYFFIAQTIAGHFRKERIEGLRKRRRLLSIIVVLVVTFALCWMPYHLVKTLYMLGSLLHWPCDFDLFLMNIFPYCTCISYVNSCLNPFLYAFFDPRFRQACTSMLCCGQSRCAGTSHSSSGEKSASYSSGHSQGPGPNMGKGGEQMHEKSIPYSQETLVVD
Text: cAMP functional assay. cAMP production was quantified using the Homogeneous Time-Resolved Fluorescence (HTRF) cAMP dynamic-2 assay (Cisbio, France).

[3] = Human Apelin agonist cAMP assay, CHO cells stably expressing the human Apelin receptor, 3 uM forskolin
[4] = pEC50, Human Apelin agonist cAMP assay, CHO cells stably expressing the human Apelin receptor, 3 uM forskolin

Emax (human Apelin receptor [2]; read-out: Emax) [%]	EC50 (human Apelin receptor [2]; read-out: pEC50 (converted)) [nM]	SMILES	EC50 (human Apelin receptor [1]) [nM]	Emax (human Apelin receptor [2]; [3]) [%]	EC50 (human Apelin receptor [2]; [4]) [nM]
46.1	50.1	CC(C)C[C@H](NC(=O)[C@H](CCCNC(=N)N)NC(=O)[C@@H]1CCCN1C(=O)[C@@H](CCCNC(=N)N)NC(=O)[C@H](CCC(N)=O)NC(=O)C(C)(C)C(=O)NCCc1cnc[nH]1)C(=O)NC(C)(C)C(=O)N[C@@H](Cc1c[nH]cn1)C(=O)N[C@@H](CC1CCNCC1)C(=O)NCC(=O)N1[C@H](C(=O)N[C@@H](Cc2ccc(Br)cc2)C(=O)N2CCC[C@H]2C(=O)N[C@H](Cc2ccc(Br)cc2)C(=O)O)C[C@@H]2CCCC[C@@H]21 [Example 41] ({Malonyl(2,2-Me2,histaminyl)}-Q[dR]PRL[Aib]H[Ala(piperidin-4-yl)]G[Oic][Phe(4-Br)]P[dPhe(4-Br)]-OH)	> 10000		
		CC(C)C[C@H](NC(=O)[C@H](CCCNC(=N)N)NC(=O)[C@@H]1CCCN1C(=O)[C@@H](CCCNC(=N)N)NC(=O)[C@H](CCC(N)=O)NC(=O)C(C)(C)C(=O)NCCc1cnc[nH]1)C(=O)NC(C)(C)C(=O)N[C@@H](Cc1c[nH]cn1)C(=O)N[C@@H](CC1CCNCC1)C(=O)NCC(=O)N1[C@H](C(=O)N[C@@H](Cc2ccc(Br)cc2)C(=O)N2CCC[C@H]2C(=O)N[C@H](Cc2ccc(OCc3ccccc3)cc2)C(=O)O)C[C@@H]2CCCC[C@@H]21 [Example 42] ({Malonyl(2,2-Me2,histaminyl)}-Q[dR]PRL[Aib]H[Ala(piperidin-4-yl)]G[Oic][Phe(4-Br)]P[dY](Bn)-OH)	79.4	107	7.94
95.7	100	CC(C)C[C@H](NC(=O)[C@H](CCCNC(=N)N)NC(=O)[C@@H]1CCCN1C(=O)[C@@H](CCCNC(=N)N)NC(=O)[C@H](CCC(N)=O)NC(=O)C(C)(C)C(=O)NCCc1cnc[nH]1)C(=O)NC(C)(C)C(=O)N[C@@H](Cc1c[nH]cn1)C(=O)N[C@@H](CC1CCNCC1)C(=O)NCC(=O)N1[C@H](C(=O)N[C@@H](Cc2ccc(Br)cc2)C(=O)N2CCC[C@H]2C(=O)N[C@H](CC2CCCCC2)C(=O)O)C[C@@H]2CCCC[C@@H]21 [Example 43] ({Malonyl(2,2-Me2,histaminyl)}-Q[dR]PRL[Aib]H[Ala(piperidin-4-yl)]G[Oic][Phe(4-Br)]P[dCha]-OH)	> 10000		
		CC(C)C[C@H](NC(=O)[C@H](CCCNC(=N)N)NC(=O)[C@@H]1CCCN1C(=O)[C@@H](CCCNC(=N)N)NC(=O)[C@H](CCC(N)=O)NC(=O)C(C)(C)C(=O)NCCc1cnc[nH]1)C(=O)NC(C)(C)C(=O)N(C)[C@@H](Cc1c[nH]cn1)C(=O)N[C@@H](CC1CCNCC1)C(=O)NCC(=O)N1[C@H](C(=O)N[C@@H](Cc2ccc(Br)cc2)C(=O)N2CCC[C@H]2C(=O)N[C@H](Cc2ccc(-c3ccccc3)cc2)C(=O)O)C[C@@H]2CCCC[C@@H]21 [Example 44] ({Malonyl(2,2-Me2,histaminyl)}-Q[dR]PRL[Aib][NMeH][Ala(piperidin-4-yl)]G[Oic][Phe(4-Br)]P[dBip]-OH)	> 10000	34.7	50.1
		CC(C)C[C@H](NC(=O)[C@@H](CCCNC(=N)N)NC(=O)[C@@H]1CCCN1C(=O)[C@H](CCCCNC(=N)N)NC(=O)[C@H](CCC(N)=O)NC(=O)C(C)(C)C(=O)NCCc1ccccc1)C(=O)NC(C)(C)C(=O)N[C@@H](Cc1c[nH]cn1)C(=O)N[C@@H](CC1CCNCC1)C(=O)NCC(=O)N1[C@H](C(=O)N[C@@H](Cc2ccc(Br)cc2)C(=O)N2CCC[C@H]2C(=O)N[C@H](Cc2ccc(-c3ccccc3)cc2)C(=O)O)C[C@@H]2CCCC[C@@H]21 [Example 45] (X1-Q[hArg]P[dR]L[Aib]H[Ala(piperidin-4-yl)]G[Oic][Phe(4-Br)]P[dBip]-OH)	> 10000	59	39.8
		CC(C)C[C@H](NC(=O)[C@@H](CCCNC(=N)N)NC(=O)[C@@H]1CCCN1C(=O)[C@H](CCCCNC(=N)N)NC(=O)[C@H](CCC(N)=O)NC(=O)C(C)(C)C(=O)NCCc1ccccn1)C(=O)NC(C)(C)C(=O)N[C@@H](Cc1c[nH]cn1)C(=O)N[C@@H](CC1CCNCC1)C(=O)NCC(=O)N1[C@H](C(=O)N[C@@H](Cc2ccc(Br)cc2)C(=O)N2CCC[C@H]2C(=O)N[C@H](Cc2ccc(-c3ccccc3)cc2)C(=O)O)C[C@@H]2CCCC[C@@H]21 [Example 46] (X3-Q[hArg]P[dR]L[Aib]H[Ala(piperidin-4-yl)]G[Oic][Phe(4-Br)]P[dBip]-OH)	> 10000	55	39.8
		CC(C)C[C@H](NC(=O)[C@@H](CCCNC(=N)N)NC(=O)[C@@H]1CCCN1C(=O)[C@H](CCCCNC(=N)N)NC(=O)[C@H](CCC(N)=O)NC(=O)C(C)(C)C(=O)NCCc1cnc[nH]1)C(=O)N[C@@H](CO)C(=O)NC(C)(C)C(=O)N[C@@H](CC1CCNCC1)C(=O)NCC(=O)N1[C@H](C(=O)N[C@@H](Cc2ccc(Br)cc2)C(=O)N2CCC[C@H]2C(=O)N[C@H](Cc2ccc(-c3ccccc3)cc2)C(=O)O)C[C@@H]2CCCC[C@@H]21 [Example 47] ({Malonyl(2,2-Me2,histaminyl)}-Q[hArg]P[dR]LS[Aib][Ala(piperidin-4-yl)]G[Oic][Phe(4-Br)]P[dBip]-OH)	> 1000	94.2	12.6
		CC(C)C[C@@H](NC(=O)[C@@H](CCCNC(=N)N)NC(=O)[C@@H]1CCCN1C(=O)[C@H](CCCCNC(=N)N)NC(=O)[C@@H](CCC(N)=O)NC(=O)C(C)(C)C(=O)NCCc1cnc[nH]1)C(=O)NC(C)(C)C(=O)N[C@@H](Cc1c[nH]cn1)C(=O)N[C@@H](CC1CCNCC1)C(=O)N[C@H](C)C(=O)N1[C@H](C(=O)N[C@@H](Cc2ccc(Br)cc2)C(=O)N2CCC[C@H]2C(=O)N[C@H](Cc2ccc(-c3ccccc3)cc2)C(=O)O)C[C@@H]2CCCC[C@@H]21 [Example 48] ({Malonyl(2,2-Me2,histaminyl)}-[dQ][hArg]P[dR][dL][Aib]H[Ala(piperidin-4-yl)][dA][Oic][Phe(4-Br)]P[dBip]-OH)	> 10000	33.5	100
		CC(C)C[C@H](NC(=O)[C@H](CCCNC(=N)N)NC(=O)[C@@H]1CCCN1C(=O)[C@@H](CCCNC(=N)N)NC(=O)[C@H](CCC(N)=O)NC(=O)C(C)(C)C(=O)NCCc1cnc[nH]1)C(=O)NC(C)(C)C(=O)N[C@@H](Cc1cn(C)cn1)C(=O)N[C@@H](CC1CCNCC1)C(=O)NCC(=O)N1[C@H](C(=O)N[C@@H](Cc2ccc(Br)cc2)C(=O)N2CCC[C@H]2C(=O)N[C@H](Cc2ccc(-c3ccccc3)cc2)C(=O)O)C[C@@H]2CCCC[C@@H]21 [Example 49] ({Malonyl(2,2-Me2,histaminyl)}-Q[dR]PRL[Aib][His(τ-Me)][Ala(piperidin-4-yl)]G[Oic][Phe(4-Br)]P[dBip]-OH)	> 10000	87.2	7.94
		CC(C)C[C@H](NC(=O)[C@@H](CCCNC(=N)N)NC(=O)[C@@H]1CCCN1C(=O)[C@H](CCCCNC(=N)N)NC(=O)[C@@H](CCC(N)=O)NC(=O)C(C)(C)C(=O)NCCc1cnc[nH]1)C(=O)NC(C)(C)C(=O)N[C@@H](Cc1c[nH]cn1)C(=O)N[C@@H](CC1CCNCC1)C(=O)NCC(=O)N1[C@H](C(=O)N[C@@H](Cc2ccc(Br)cc2)C(=O)N2CCC[C@H]2C(=O)N[C@H](Cc2ccc(-c3ccccc3)cc2)C(=O)O)C[C@@H]2CCCC[C@@H]21 [Example 50] ({Malonyl(2,2-Me2,histaminyl)}-[dQ][hArg]P[dR]L[Aib]H[Ala(piperidin-4-yl)]G[Oic][Phe(4-Br)]P[dBip]-OH)	> 10000	56.5	39.8
		CC(C)C[C@@H](C(=O)NC(C)(C)C(=O)N[C@@H](Cc1c[nH]cn1)C(=O)N[C@@H](CC1CCNCC1)C(=O)NCC(=O)N1[C@H](C(=O)N[C@@H](Cc2ccc(Br)cc2)C(=O)N2CCC[C@H]2C(=O)N[C@H](Cc2ccc(-c3ccccc3)cc2)C(=O)O)C[C@@H]2CCCC[C@@H]21)N(C)C(=O)[C@@H](CCCNC(=N)N)NC(=O)[C@@H]1CCCN1C(=O)[C@H](CCCCNC(=N)N)NC(=O)[C@H](CCC(N)=O)NC(=O)C(C)(C)C(=O)NCCc1cnc[nH]1 [Example 51] ({Malonyl(2,2-Me2,histaminyl)}-Q[hArg]P[dR][NMeL][Aib]H[Ala(piperidin-4-yl)]G[Oic][Phe(4-Br)]P[dBip]-OH)	> 10000	27.6	79.4
		CC(C)C[C@H](NC(=O)[C@@H](CCCNC(=N)N)NC(=O)[C@@H]1CCCN1C(=O)[C@H](CCCCNC(=N)N)NC(=O)[C@H](CCC(N)=O)NC(=O)C(C)(C)C(=O)NCCc1cnc[nH]1)C(=O)NC(C)(C)C(=O)N[C@@H](Cc1c[nH]cn1)C(=O)N[C@@H](CC1CCNCC1)C(=O)N(C)CC(=O)N1[C@H](C(=O)N[C@@H](Cc2ccc(Br)cc2)C(=O)N2CCC[C@H]2C(=O)N[C@H](Cc2ccc(-c3ccccc3)cc2)C(=O)O)C[C@@H]2CCCC[C@@H]21 [Example 52] ({Malonyl(2,2-Me2,histaminyl)}-Q[hArg]P[dR]L[Aib]H[Ala(piperidin-4-yl)][Sar][Oic][Phe(4-Br)]P[dBip]-OH)	> 10000	20.4	63.1
